The results in this text go back to patent publication US8008021B2, “N-terminal truncation of cardiac troponin subunits and their roles in cardiovascular disease” (Evanston Northwestern Healthcare, priority 2006, dated 2011).

This assay deals with T1, myofibril associated μ-calpain (Mus musculus, UniProt O35350).
T1 construct: To test whether endogenous calpain in the cardiac muscle contributes to TnT NH2-terminal modification; from tissue
T1 sequence (O35350 1-713): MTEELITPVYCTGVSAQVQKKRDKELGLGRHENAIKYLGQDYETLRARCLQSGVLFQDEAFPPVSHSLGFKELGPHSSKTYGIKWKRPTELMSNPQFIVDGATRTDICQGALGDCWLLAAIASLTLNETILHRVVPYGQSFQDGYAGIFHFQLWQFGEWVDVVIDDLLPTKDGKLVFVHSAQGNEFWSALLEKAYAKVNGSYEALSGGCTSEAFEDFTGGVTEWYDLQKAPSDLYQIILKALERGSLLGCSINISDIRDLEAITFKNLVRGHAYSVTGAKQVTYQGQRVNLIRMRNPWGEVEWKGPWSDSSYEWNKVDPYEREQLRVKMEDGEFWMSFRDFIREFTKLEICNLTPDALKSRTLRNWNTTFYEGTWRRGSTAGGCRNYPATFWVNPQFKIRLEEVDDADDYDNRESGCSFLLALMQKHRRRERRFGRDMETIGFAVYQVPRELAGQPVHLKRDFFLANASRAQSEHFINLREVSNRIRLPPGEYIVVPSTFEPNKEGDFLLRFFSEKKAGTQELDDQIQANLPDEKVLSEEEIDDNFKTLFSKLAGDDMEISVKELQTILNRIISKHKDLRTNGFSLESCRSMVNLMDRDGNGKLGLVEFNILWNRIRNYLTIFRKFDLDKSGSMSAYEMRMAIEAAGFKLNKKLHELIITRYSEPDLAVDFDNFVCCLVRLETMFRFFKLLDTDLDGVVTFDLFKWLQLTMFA
T1 sequence (O88456 1-268 partner): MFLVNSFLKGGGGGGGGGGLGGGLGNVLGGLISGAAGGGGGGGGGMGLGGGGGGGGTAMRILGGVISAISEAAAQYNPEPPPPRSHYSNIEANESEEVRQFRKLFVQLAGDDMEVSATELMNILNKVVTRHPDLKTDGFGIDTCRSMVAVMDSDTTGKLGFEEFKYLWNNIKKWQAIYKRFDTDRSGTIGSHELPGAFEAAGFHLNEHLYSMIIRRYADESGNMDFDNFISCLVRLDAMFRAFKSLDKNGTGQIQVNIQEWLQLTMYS
Put plainly: Calpain inhibition of cTnT-ND production in TRITON X-100 extracted ventricular muscle strips (Western blot densitometry). Type of assay: biochemical. The conditions noted are these: calpain specific inhibitor; TRITON X-100 extracted mouse cardiac muscle strips. The method, then: SDS-PAGE and Western blotting. Ventricular muscle tissues or myocytes were homogenized in Laemmli SDS-PAGE sample buffer containing 2% SDS, heated at 80° C. for 5 min, and clarified by centrifugation. Total protein extracts were resolved by 14% Laemmli gel with an acrylamide:bisacrylamide ratio of 180:1 (low cross linker) or by 15% Laemmli gel with an acrylamide:bisacrylamide ratio of 29:1 (high cross linker). The gels were stained with Coomassie Brilliant Blue R250 to reveal the resolved protein bands. Duplicate gels were electrically blotted to nitrocellulose membranes, as described previously (21). After blocking in Tris-buffered saline (TBS) containing 1% bovine serum albumin (BSA), the membrane was incubated with anti-TnT mAbs CT3, 2C8, or polyclonal antibody RATnT. The membranes were then washed with high stringency using TBS containing 0.5% TRITON® X-100 and 0.05% SDS, incubated with alkaline phosphatase-conjugated anti-mouse IgG or anti-rabbit IgG second antibodies (Sigma), washed again, and developed in 5-bromo-4-chloro-3-indolylphosphate/nitro blue tetrazolium substrate solution, as described previously (21).
TRITON® X-100 extraction of ventricular muscle strips. In an ice container, ventricular muscle was cut with a sharp razor blade into fine pieces approximately the size of isolated trabeculae. The muscle strips were washed in relaxing solution containing […], 2 mM MgCl2, 2 mM EGTA, 10 mM Tris, 0.5 mM DTT, 0.1 mM PMSF and 2 mM Na4P2O7. After centrifugation at 2,800×g at 4° C. for 15 min, the pellet was skinned in relaxing solution plus 0.5% (w/w) TRITON® X-100 at 4° C. with rotation for 10 min. After centrifugation at 14,000×g at 4° C. for 20 min, the pellet was suspended in relaxing solution without TRITON® X-100 and incubated at 37° C. with rotation. Samples were collected at a series of time points for SDS-PAGE and Western blotting to examine the modifications of cTnT and other myofibrillar proteins.
Calpain inhibition. To test whether endogenous calpain in the cardiac muscle contributes to TnT NH2-terminal modification, several different calpain inhibitors were applied to the TRITON® X-100 extraction procedure. […] TRITON® X-100 treatment of mouse ventricular muscle strips was carried out as above in the presence or absence of 100 μM hydrogen peroxide and the effect on cTnT modification was examined by Western blotting.
The effects of two cell membrane-permissible nonpeptide calpain inhibitors, PD 150606 and PD 151746 (Calbiochem), were also tested. […] PD 150606 and […] were separately added to the relaxing solution before TRITON® X-100 treatment and incubated with the minced ventricular muscle at 4° C. for 10 minutes to allow the inhibitor to penetrate cell membrane and bind to calpain. After TRITON® X-100 extraction, samples were collected for SDS-PAGE and Western blotting to examine the effect on cTnT modification.
(In general: A western blot detects proteins with antibodies after separation by electrophoresis.)

As to `O=C(O)/C(S)=C/c1c[nH]c2ccc(F)cc12` [PD151746], the “cTnT-ND production decreased to” value is reported as 50% and the “decrease in cTnT-ND72-291 production” value is “approximately 50%”.

Take `O=C(O)/C(S)=C/c1ccc(I)cc1` [PD150606]: the “cTnT-ND production decreased to” value was determined as 63% and the “decrease in cTnT-ND72-291 production” value is “approximately 37%”.
